EP4556003A1, “ANTI-OBESITY AND ANTI-DIABETIC ACTIVITY OF BROMINATED DITERPENES FROM RED ALGAE OF THE GENUS LAURENCIA AND APPLICATIONS THEREOF” (priority 2023, dated 2025)

How the values were obtained:
[1] = test system: cytochrome P450 genes (Cyp1a1, Cyp2b10, Cyp3a11, Cyp3a25); assay: Quantitative PCR of cytochrome P450 genes in liver RNA extracts; type: in vivo, C57BL/6 adult male mice; conditions: 0.25 mg/mouse i.p. every 48 h for 35 days; vs high-fat diet mice
Protocol: (§1) Adipocytes and preadipocytes were harvested using the TRI Reagent®. RNA isolation was carried out according to the manufacturer's instructions. The purified RNA was quantified using the Nanodrop micro-volume spectrophotometer and 500 ng of each sample were used as a template for reverse transcription. cDNA synthesis was performed using the PrimeScriptTM RT reagent Kit (TaKaRa, RR037A) according to manufacturer's instructions. The cDNA produced by the above described procedure was diluted and used as a template for two-step quantitative PCR in a StepOnePlus™ Real-Time PCR System (Applied Biosystems™, 4376600) for a maximum of 40 cycles, as follows: start step 95 °C for 3 min, repeat steps: 95 °C for 15 s and 60 °C for 30 s. Amplification was performed using KAPA SYBR® FAST Universal qPCR kit (Kapa Biosystems, KK4618) according to manufacturer's instructions. Relative quantitative analysis was accomplished calculating fold-changes of gene expression as 2-(ΔΔCt), where ΔCt is (Ct (gene of interest) - Ct (housekeeping gene)). Ppib was used as internal control gene in 3T3L1 cells and in the fat fraction of mice abdominal fat, Rps9 was used as internal control gene in the stromal vascular fraction of mice abdominal fat and Actb was used as internal control gene in liver samples. Table 1. List of primers used for quantitative real-time PCR analysis.
(§2) All procedures were conducted in compliance with protocols approved by the Animal Care Committee of the University of Crete, School of Medicine (Facility number EL91-BIOexp-06), in conjunction with the Veterinary Department of the Region of Crete, Heraklion, Crete, Greece. C57BL/6 adult male mice were maintained in a 12 h day/night cycle and 21-23 °C conditions. Mice were provided with water and either normal fat diet, or high fat diet (60% energy from fat) ad libitum. All mice were weighed every 48 h.
(§3) Neorogioldiol was first dissolved in 90% carbowaxTM 400, 10% (v/v) absolute ethanol solution and then diluted 1:10 in water for injection. A dose of 0.25 mg neorogioldiol in a total volume of 200 µl was administered intraperitoneally every 48 h in mice in high fat + neorogioldiol group starting from day 1. 4-5 mice were used per group and each experiment was performed twice.

3T3-L1 preadipocytes = assay: Seahorse XF cell metabolism analysis (extracellular acidification rate); type: cell-based, Mouse; conditions: 62.5 µM for 24 h
Protocol: Seahorse XF Cell Energy Phenotype Test Kit and Seahorse XF Cell Mito Stress Test Kit were used to measure oxygen consumption rate and extracellular acidification rate on a Seahorse Bioscience XF Analyzer (Agilent Technologies). 3T3-L1 preadipocytes were seeded at 7.5×10^3 per well in growth medium in XF 96 Cell Culture Microplate (Agilent Technologies) two days prior to assay. 24 h prior to the assay, medium was changed and compound 1 was added at concentration of 62.5 µM. The day of the assay, cells were washed once and media was replaced with XF Base Medium (pH 7.4) supplemented with 1 mM pyruvate, 2 mM glutamine and 10 mM glucose. The plate was placed in a 37 °C incubator without CO2 for one hour prior to the assay. Cells were washed a second time right before starting the experiment. After measuring basal oxygen consumption rate and extracellular acidification rate, oligomycin (1.0 µM) and FCCP (1.0 µM) were introduced in real time to measure oxygen consumption rate and extracellular acidification rate under stressed condition. For the baseline extracellular acidification rate the third out of the three baseline measurements was used, while for the stressed condition, the highest measurement after the injections was used. The metabolic potential is calculated as the percentage of stressed extracellular acidification rate to baseline extracellular acidification rate.

abdominal fat = assay: Quantitative PCR in fat fraction and stromal vascular fraction of abdominal fat; type: in vivo, C57BL/6 adult male mice
Protocol: as §1, §2, §3
(§4) Abdominal fat lobes were weighed, washed in PBS, minced and dissolved with collagenase. They were incubated in 1.5mg/ml collagenase in 1% PBS-BSA, for 30 min at 37 °C. Next, homogenate was centrifuged at 800 rpm for 5 min at room temperature. The upper fatty phase, which contains the adipocytes, was collected and resuspended in TRI Reagent® and RNA isolation was carried out according to the manufacturer's instructions. The cell pellet, which is the stromal vascular fraction, was washed once with PBS and resuspended in TRI Reagent® for RNA isolation.

[2] = High fat diet-induced obesity mouse model (weight gain, abdominal fat, spleen weight, overall toxicity); type: in vivo; conditions: high fat diet mice
Protocol: as §2, §3, §4

[3] = high fat diet + neorogioldiol vs high fat diet mice
[4] = high fat diet + neorogioldiol vs untreated obese mice
[5] = intraperitoneal 0.25 mg/mouse every 48 h for 35 days, vs high fat diet without neorogioldiol

neorogioldiol
Cyp1a1 expression in liver RNA extracts [1]: no difference
Cyp2b10 expression in liver RNA extracts [1]: no difference
Cyp3a11 expression in liver RNA extracts [1]: no difference
Cyp3a25 expression in liver RNA extracts [1]: no difference
basal levels of extracellular acidification rate (3T3-L1 preadipocytes): increasing basal levels
metabolic potential (stressed to baseline extracellular acidification rate) (3T3-L1 preadipocytes; after oligomycin and FCCP): decreased the metabolic potential
Arg1 expression in the stromal vascular fraction (abdominal fat; [3]): downregulated
Il10 expression in the stromal vascular fraction (abdominal fat; [3]): downregulated
Adipoq expression in the fat fraction of abdominal fat (abdominal fat; [4]): lower levels
Lep expression in the fat fraction of abdominal fat (abdominal fat; [4]): lower levels
toxicity in vivo (overall) ([2]; 0.25 mg/mouse i.p. every 48 h for 35 days): did not exhibit any toxicity in vivo
abdominal fat mass [2, 5]: reduced abdominal fat mass
weight gain [2, 5]: suppressed weight gain
